The results in this text go back to patent publication US20250127699A1, “One Pot Process for Preparing 'Grit-Free' Solid Cleansing Compositions” (GALAXY SURFACTANTS LTD., priority 2023, published 2025).

Experiment in all cases: Minimum inhibitory concentration
Assay type in all cases: cell-based
What all share (settings): at pH 5.5, 1% solution

Assay [1] relates to Aspergillus niger ATCC 16404. The source says:
(§1) These gentle antimicrobials are well-established in personal care industry for their skin and scalp care benefits that stem from their broad range of antimicrobial activity. These are mostly deployed in a variety of ‘liquid’ wash formulations (body wash/hair wash) and sometimes in ‘leave-on’ creams and lotions (anti-acne). […] These two lipidated glycines, alone as well as when combined together, show remarkable activity against Candida albicans and Candida glabrata yeast (vaginal candidiasis, the yeast infection) and Gardnerella vaginalis (a Gram-variable bacterium that is a causative microbe for bacterial vaginosis). […] These two N-acyl glycines, akin to skin fatty acids, are devoid of any structural feature, like halogen atom or a heterocycle, that can be a potential hazard to the environment and living systems. […] The N-acyl glycine alone or in combination can be used up to 4.0% by weight of the total composition. The traditional environmentally toxic chlorinated antimicrobials for cleansing hygiene bars such as Chlorhexidne, Triclosan, Chloroxylenol, Climbazole, Triclocarban (banned in 2017) or other traditional anti-dandruff (antifungal) agents like Climbazole or Octopirox (monoethanol amine salt of piroctone), Zinc pyrithion (now banned in EU) etc. generate unsalvageable waste at every step of the multistep syntheses. In contrast to the facts (hazardous synthesis and toxicity) of traditional antimicrobials for solid cleansers, the lipidated glycines, that are part of solid compositions of the present invention, are manufactured by green chemistry without generating any unsalvageable/non-disposable waste as taught by IN patent 362888. Also, it is to be noted that N-acyl glycines are biodegradable and environmentally benign. These two lipidated glycines (Formula I and Formula II) are organic acids and by adding them in the second stage of processing when the mass of the first stage is being kneaded with limited amount of water in a sigma blender, helps to achieve the desired pH of the final solid cleanser. pH of the final solid cleanser can be brought down from 6.0 to 4.0 by incorporating these acyl glycines at an amount of about 0.5% to 4.0% of the total composition. The two N-acyl glycines can be used individually or in a combination. Examples 1 to 9 deploy either N-capryloyl glycine or N-undecylenoyl glycine, however, Example 10 to 13 use both of N-capryloyl glycine and N-undecylenoyl glycine. Higher % of capryloyl glycine (around 3.0% of the total composition) results in lower pH that is intended for anti-acne or feminine intimate hygiene wash as exemplified in Example 3. Minimum inhibitory concentrations of capryloyl glycine (CG) and undecylenoyl glycine (UG) and their combination (CG-UG) in 1:1 molar ratio using 1% solution at pH 5.5 are given in Table 1. […] The MIC numbers (less than 0.1%) for the N-acyl glycines against Gardnerella bacterium are extremely good. […] The preferred antimicrobials for the solid cleansers of the present invention are the combination of N-capryloyl glycine and N-undecylenoyl glycine in the molar ratio of 1:1.

Assay [2] has as its system Malassezia furfur ATCC 14521.
Text: as §1

Assay [3] relates to Malassezia restricta ATCC MYA 4611.
Text: as §1

Assay [4] deals with Burkholderia cepacia ATCC 25416.
Text: as §1

Assay [5] deals with Escherichia coli ATCC 8739.
Text: as §1

For assay [6], the system named is Staphylococcus hominis MTCC 8980.
Text: as §1

Assay [7] concerns Candida glabrata ATCC 66032.
Text: as §1

For assay [8], the system named is Corynebacterium xerosis ATCC 373.
Text: as §1

Assay [9] deals with Micrococcus luteus NCIM 2103.
Text: as §1

The test system of assay [10] is Staphylococcus epidermidis NCIM 2493.
Text: as §1

Assay [11] deals with Gardnerella vaginalis ATCC 14018.
Text: as §1

Assay [12] concerns Staphylococcus aureus ATCC 6538.
Text: as §1

Assay [13] relates to Propionibacterium acnes MTCC 1951.
Text: as §1

Assay [14] relates to Pseudomonas aeruginosa ATCC 15442.
Text: as §1

For assay [15], the system named is Candida albicans ATCC 10231.
Text: as §1

Regarding `CCCCCCCC(=O)NCC(=O)O` [CG, N-capryloyl glycine], the “Minimum Inhibitory Concentration” value in [1] was found to be 1%; in assay [2], 0.5%; in assay [3] it was 0.4%; in assay [4], 1%; in [5], 0.7%; in assay [6], 0.3%. The “Minimum Inhibitory Concentration” value in assay [7] came out at 1%; in assay [8] it was 1. %; in assay [9] it was 1%; in assay [10], 1%; in assay [11] it was 0.09%; in assay [12], 1%. Moreover, the “Minimum Inhibitory Concentration” value in assay [13] is 1%; in [14], 1%; in [15] it was 0.6%.
Regarding `C=CCCCCCCCCC(=O)NCC(=O)O` [UG, N-undecylenoyl glycine], the “Minimum Inhibitory Concentration” value in [1] is 1%; in assay [2] it was 0.5%; in assay [3] it was 0.4%; in assay [4], 1%; in assay [5] it was 0.9%; in assay [6] it was 0.2%. Moreover, the “Minimum Inhibitory Concentration” value in [7] came out at 0.9%; in assay [8] it was 0.7%; in assay [9] it was 0.5%; in assay [10] it was 0.4%; in [11], 0.06%; in assay [12] it was 0.6%. Moreover, the “Minimum Inhibitory Concentration” value in assay [13], in assay [14] and in assay [15] was 1% each time.
